Data set [1] in a line: Crystallinity by powder X-ray diffraction (PXRD). The following applies: state of Iva, FIG. 1B, 3A, 3B. It is filed as physicochemical. The procedure: Crystalline state of the optimal Iva-BSA-NPs and the physical mixture (PM) of BSA and Iva were characterized by the powder X-ray diffraction (PXRD, SmartLabTM diffractometer, Rigaku Americas, Austin, USA) with Cu-Kα radiation source, operating at 40 kV and 44 mA . The scanning 2θ range was set as 5 to 60° with a scanning rate of 5°/min ([…] et al., 2018a). Crystalline state of co-delivery microparticles and the PM of BSA, Iva, Col and L-leucine were characterized by PXRD with the similar method as to detect the optimal nanoparticles.

Data set [2] relates to Pseudomonas aeruginosa (PA). The following applies: when combined with polymyxin B; cited from earlier work.
Data set [3] relates to Staphylococcus aureus (SA). The following applies: against SA; cited from earlier work.

We go through 1 compound from US20230099696A1, “NANO-COMPOSITE MICROPARTICLES OF POLYMYXIN” (Purdue Research Foundation, priority 2020, published 2023).

Each structure is given as a SMILES string.

On to `CC(C)(C)c1cc(C(C)(C)C)c(NC(=O)c2c[nH]c3ccccc3c2=O)cc1O` [Iva, Ivacaftor], for which the “crystalline state (PXRD)” value in data set [1] is on record as “crystalline”. Further, the “antimicrobial activity against PA” value in data set [2] is recorded as “significant antimicrobial activity”. Also, the MIC in data set [3] was 8~32 mg/L.
